Assay results: PubChem BioAssay AID449764 (Southern Research Specialized Biocontainment Screening …, 2010)

System: Mycobacterium tuberculosis H37Rv growth inhibition, no glycerol
Assay: Confirmatory growth inhibition assay, Mycobacterium tuberculosis H37Rv, absence of glycerol (AID 449764);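 note: growth read after 7 days of incubation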
Conditions: for IC90: measured here: IC90 growth inhibition

CC1(O)CC(c2ccc(Cl)cc2)=NN1C(=O)c1ccc([N+](=O)[O-])cc1 (stereo not given)
IC50: 7.79 µM | IC90: > 100 µM

O=C(Nc1ccc(Cl)cc1)N1CCN(c2ccc3nnc(-c4ccc(F)cc4)n3n2)CC1
IC50: 18.9 µM | IC90: 51.8 µM

O=C(NCC(c1cccs1)N1CCOCC1)c1cc([N+](=O)[O-])cc([N+](=O)[O-])c1 (stereo not given)
IC50: 0.81 µM | IC90: 1.5 µM

CSc1nn(-c2ccc(C(=O)OCC(=O)NC(=O)NC(C)C)cc2)c(=S)s1
IC50: 35.7 µM | IC90: 48.9 µM

CC1(C)Cc2c(C#N)c(N3CCN(C(=O)c4ccccc4)CC3)nc(Cc3ccccc3)c2CO1
IC50: 31.4 µM | IC90: 46.9 µM

Oc1ccc(Nc2nc(-c3ccc4ccccc4c3)cs2)cc1
IC50: 82.4 µM | IC90: > 100 µM

CCCCCc1nc2c(c(=O)c3ccccc3n2C)c(=O)n1C1CCCCCC1
IC50: 55.6 µM | IC90: 77.5 µM

NC(=O)c1ccc(N=Cc2ccc([N+](=O)[O-])s2)cc1
IC50: 16.9 µM | IC90: 19.8 µM

Cc1cccc(C)c1OCCCCc1c(C)n[nH]c1C
IC50: 17.7 µM | IC90: > 100 µM

O=C(c1ccc(-c2cccc(C(F)(F)F)c2)o1)N1CCN(c2ccccc2O)CC1
IC50: 24 µM | IC90: 27.5 µM

CCOC(=O)c1nn(-c2ccc(C)cc2)c2nc(Nc3ccccc3)cc(=O)n12
IC50: 12 µM | IC90: 13.6 µM

Cc1ccc(OCCCCNC2CCCC(C)C2C)c(C)c1 (stereo not given)
IC50: 23.1 µM | IC90: 25.4 µM

COc1ccccc1C1=NOC(COC(=O)c2ccc([N+](=O)[O-])cc2)C1 (stereo not given)
IC50: 47.7 µM | IC90: > 100 µM

COc1ccc2[nH]c3c(C)c4ccncc4c(C)c3c2c1
IC50: 1.33 µM | IC90: 1.68 µM

CCOC(=O)CSc1ccc(C(=O)Nc2ccc(OC)cc2)cn1
IC50: 0.46 µM | IC90: > 100 µM

CCCCC(=O)OCC(=O)N1N=C(c2c[nH]c3ccccc23)C(O)C1c1ccc(OC)cc1 (stereo not given)
IC50: 22 µM | IC90: 25.1 µM

CSC(=S)NCc1cccnc1
IC50: 29.1 µM | IC90: 41.9 µM

O=C(N/N=C(\c1ccccc1)c1ccccn1)c1ccccc1Cl
IC50: 12.1 µM | IC90: 15.5 µM

O=C(NC(=S)Nc1cccc2cccnc12)c1ccccc1
IC50: 56.9 µM | IC90: > 100 µM

CC(C)(C)c1ccc(C(=O)N2CCN(CCNC(=O)C(=O)NCc3ccc(Cl)cc3)CC2)cc1
IC50: 24.7 µM | IC90: 46.7 µM

CCc1ccc2oc(-c3cc(N=Cc4cccc(OC)c4O)ccc3O)nc2c1
IC50: 63.8 µM | IC90: 95 µM

CC1CCN(C(=O)c2ccc(-c3ccccc3Cl)o2)CC1
IC50: 41 µM | IC90: 60.1 µM

COc1ccc(C2CC(c3cccs3)=Nc3ccccc3S2)cc1 (stereo not given)
IC50: 41.9 µM | IC90: 50.9 µM

N#CC(C(=O)Nc1ccccc1)=C1Nc2ccccc2N1
IC50: 39.1 µM | IC90: > 100 µM

CN(C)S(=O)(=O)c1cccc(NC(=O)CSc2cccc3cccnc23)c1
IC50: 60.6 µM | IC90: 68.2 µM

CCC1CSC(Nc2ccc(C(=O)/C=C/c3cccc(C)c3)cc2)=N1 (stereo not given)
IC50: 20.5 µM | IC90: 35.9 µM

COc1ccc(-c2cc(C3CCN(C(=O)OC(C)(C)C)CC3)[nH]n2)cc1
IC50: 38.7 µM | IC90: 53.7 µM

CCOc1cc2c3c(c1)C1(C(=O)N3C(C)(C)CC2C)C(C#N)=C(N)N2C(=C1C#N)Nc1ccccc12 (stereo not given)
IC50: 37.8 µM | IC90: > 100 µM

Cc1ccc2nc(N/N=C/c3ccccc3C#N)nc(-c3ccccc3)c2c1
IC50: 91.1 µM | IC90: > 100 µM

CCCCCC(=O)NNC(=S)NC(=O)c1ccc([N+](=O)[O-])cc1
IC50: 3.22 µM | IC90: 5.86 µM

COC(=O)c1ccc(/C=C/c2c(-c3ccsc3)oc3ccc(N4CCOCC4)cc23)cc1
IC50: 30.6 µM | IC90: 53.6 µM

COc1ccc2nc(N=NC3=C(O)CC(C)(C)CC3=O)sc2c1
IC50: 13.5 µM | IC90: 17.2 µM

Cc1nn(-c2ccccc2)c(Cl)c1/C=C/C(=O)c1ccccc1
IC50: 74.9 µM | IC90: 97.2 µM

CC1(C)CC(=O)C2=C(C1)NC(Nc1nc3ccccc3o1)=NC2c1ccccn1 (stereo not given)
IC50: 2.99 µM | IC90: 6.27 µM

CCOC(=O)/C(=N/Nc1ccccc1)c1csc(Nc2ccccc2)n1
IC50: 41.6 µM | IC90: > 100 µM
